Measured values from publication PMC10587743 (RSC Advances, 2023).
Read-outs that look alike come from different tables or passages of the source.

Assays:
[1] = system: A549 lung cancer cell lines; conditions: cited from earlier work
[2] = system: HCT-116 colon cancer cell line; assay: MTT cytotoxicity assay, HCT-116; conditions: Homo sapiens, HCT-116, read-out: In vitro cytotoxicity IC50, HCT-116
[3] = system: HePG2 liver cancer cell line; assay: MTT cytotoxicity assay, HePG2; format: cell-based; conditions: Homo sapiens, HepG2, read-out: In vitro cytotoxicity IC50, HePG2
[4] = system: MCF-7 breast cancer cell line; assay: MTT cytotoxicity assay, MCF-7; conditions: Homo sapiens, MCF7, read-out: In vitro cytotoxicity IC50, MCF-7
EGFR TK = EGFR TK (Homo sapiens, UniProt P00533); assay: EGFR kinase inhibition assay; format: biochemical
EGFR TK, sequence (P00533 25-1210): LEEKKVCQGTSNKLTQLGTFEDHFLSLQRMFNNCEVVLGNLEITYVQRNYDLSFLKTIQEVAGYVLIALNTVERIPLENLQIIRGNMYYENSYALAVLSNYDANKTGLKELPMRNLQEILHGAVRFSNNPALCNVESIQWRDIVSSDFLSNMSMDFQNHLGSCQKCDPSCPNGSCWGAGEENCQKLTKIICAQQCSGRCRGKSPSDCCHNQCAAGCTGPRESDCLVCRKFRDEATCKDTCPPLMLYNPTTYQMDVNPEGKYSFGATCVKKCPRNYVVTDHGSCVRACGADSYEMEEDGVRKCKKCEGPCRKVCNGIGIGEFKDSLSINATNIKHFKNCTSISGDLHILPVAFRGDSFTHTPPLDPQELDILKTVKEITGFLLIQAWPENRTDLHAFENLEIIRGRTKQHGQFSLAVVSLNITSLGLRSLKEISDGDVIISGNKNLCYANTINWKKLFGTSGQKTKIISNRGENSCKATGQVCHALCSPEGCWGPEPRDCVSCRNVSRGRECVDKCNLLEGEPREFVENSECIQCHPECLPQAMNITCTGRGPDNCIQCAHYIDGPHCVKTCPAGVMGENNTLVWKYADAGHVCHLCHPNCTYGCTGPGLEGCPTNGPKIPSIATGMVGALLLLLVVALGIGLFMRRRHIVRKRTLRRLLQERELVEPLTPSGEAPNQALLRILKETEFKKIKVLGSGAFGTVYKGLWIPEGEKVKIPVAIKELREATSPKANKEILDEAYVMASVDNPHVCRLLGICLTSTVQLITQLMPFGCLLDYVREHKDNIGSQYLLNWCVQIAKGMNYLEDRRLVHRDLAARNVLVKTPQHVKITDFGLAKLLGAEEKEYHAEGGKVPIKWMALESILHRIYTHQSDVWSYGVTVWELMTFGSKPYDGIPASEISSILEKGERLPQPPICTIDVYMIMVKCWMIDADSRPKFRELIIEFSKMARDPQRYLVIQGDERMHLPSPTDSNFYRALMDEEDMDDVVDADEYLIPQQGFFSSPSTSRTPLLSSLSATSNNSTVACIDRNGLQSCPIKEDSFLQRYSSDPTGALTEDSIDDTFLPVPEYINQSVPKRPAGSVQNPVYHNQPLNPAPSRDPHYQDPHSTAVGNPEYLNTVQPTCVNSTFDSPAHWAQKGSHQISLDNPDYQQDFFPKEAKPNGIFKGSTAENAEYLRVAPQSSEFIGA

P-gp in HepG-2/ADR cells = assay: Quantitative real-time PCR for P-glycoprotein; format: cell-based, human; conditions: 72 h, control HepG2 = 1
[5] = system: HePG-2, HCT-116, and MCF-7 cell lines; assay: MTT cytotoxicity, range over the three cell lines; format: cell-based; conditions: 144 h, read-out: IC50 values ranging over HePG-2, HCT-116, and MCF-7 cell lines
CDK-2 = CDK-2 (Homo sapiens, UniProt P24941); assay: CDK-2 kinase inhibition assay; format: biochemical
HCT-116 cells [6] = assay: Annexin V-FITC/PI apoptosis assay; format: cell-based; conditions: HCT-116, 6o at IC50
HCT-116 cells [7] = assay: Cell cycle analysis by flow cytometry; format: cell-based; conditions: HCT-116, 6o at IC50 (5.84 μM); control 42.94%
leukemia L1210 cells = conditions: read-out: IC50 against leukemia L1210 cells; cited from earlier work
[8] = system: breast cancer cell line (MCF-7); conditions: read-out: IC50 on breast cancer cell line (MCF-7); cited from earlier work

SMILES	IC50 [2] [µM]	IC50 [3] [µM]	IC50 [4] [µM]	other results
O=c1[nH]cc(F)c(=O)[nH]1 [5-fluorouracil]	–	–	–	IC50 ([1]; read-out: IC50 against A549 lung cancer cell lines): < 5 µM
N#Cc1c(N2C(=O)c3ccc(F)cc3C2=O)c(C(=O)Nc2ccccc2)n2c1CCC2 [Compound 6a, 7-Cyano-6-(5-fluoro-1,3-dioxoisoindolin-2-yl)-N-phenyl-2,3-dihydro-1H-pyrrolizine-5-carboxamide]	> 100	85.1 ± 4.1	93.5 ± 4.7	–
Cc1ccc(NC(=O)c2c(N3C(=O)c4ccc(F)cc4C3=O)c(C#N)c3n2CCC3)cc1 [Compound 6b, 7-Cyano-6-(5-fluoro-1,3-dioxoisoindolin-2-yl)-N-(p-tolyl)-2,3-dihydro-1H-pyrrolizine-5-carboxamide]	66.3 ± 3.1	55.4 ± 3.2	58.1 ± 3.3	–
N#Cc1c(N2C(=O)c3ccccc3C2=O)c(C(=O)Nc2ccc(F)cc2)n2c1CCC2 [Compound 6c, 7-Cyano-6-(1,3-dioxoisoindolin-2-yl)-N-(4-fluorophenyl)-2,3-dihydro-1H-pyrrolizine-5-carboxamide]	47.9 ± 2.6	49.1 ± 2.9	54.6 ± 3.1	–
N#Cc1c(N2C(=O)c3ccc(F)cc3C2=O)c(C(=O)Nc2ccc(F)cc2)n2c1CCC2 [Compound 6d, 7-Cyano-6-(5-fluoro-1,3-dioxoisoindolin-2-yl)-N-(4-fluorophenyl)-2,3-dihydro-1H-pyrrolizine-5-carboxamide]	9.49 ± 0.6	7.97 ± 0.5	13.9 ± 0.9	IC50 (EGFR TK): 0.362 ± 0.008 µM; P-gp RT-PCR fold change (P-gp in HepG-2/ADR cells): 0.4097 fold; IC50 [5]: 6.02 to 13.9 µM
COc1ccc(NC(=O)c2c(N3C(=O)c4ccccc4C3=O)c(C#N)c3n2CCC3)cc1 [Compound 6e, 7-Cyano-6-(1,3-dioxoisoindolin-2-yl)-N-(4-methoxyphenyl)-2,3-dihydro-1H-pyrrolizine-5-carboxamide]	38.1 ± 2.4	45.4 ± 2.5	42.7 ± 2.5	–
COc1ccc(NC(=O)c2c(N3C(=O)c4ccc(F)cc4C3=O)c(C#N)c3n2CCC3)cc1 [Compound 6f, 7-Cyano-6-(5-fluoro-1,3-dioxoisoindolin-2-yl)-N-(4-methoxyphenyl)-2,3-dihydro-1H-pyrrolizine-5-carboxamide]	> 100	88.3 ± 4.3	> 100	–
N#Cc1c(N2C(=O)c3ccc(F)cc3C2=O)c(C(=O)Nc2ccc(Cl)cc2)n2c1CCC2 [Compound 6g, N-(4-Chlorophenyl)-7-cyano-6-(5-fluoro-1,3-dioxoisoindolin-2-yl)-2,3-dihydro-1H-pyrrolizine-5-carboxamide]	60.2 ± 3.3	52 ± 2.8	69.4 ± 3.7	–
N#Cc1c(N2C(=O)c3ccccc3C2=O)c(C(=O)Nc2ccc(Br)cc2)n2c1CCC2 [Compound 6h, N-(4-Bromophenyl)-7-cyano-6-(1,3-dioxoisoindolin-2-yl)-2,3-dihydro-1H-pyrrolizine-5-carboxamide]	> 100	91.4 ± 4.8	> 100	–
N#Cc1c(N2C(=O)c3ccc(F)cc3C2=O)c(C(=O)Nc2ccc(Br)cc2)n2c1CCC2 [Compound 6i, N-(4-Bromophenyl)-7-cyano-6-(5-fluoro-1,3-dioxoisoindolin-2-yl)-2,3-dihydro-1H-pyrrolizine-5-carboxamide]	14.3 ± 1.1	20.4 ± 1.5	25.3 ± 2	–
N#Cc1c(N2C(=O)c3ccccc3C2=O)c(C(=O)Nc2ccccc2)n2c1CCCC2 [Compound 6j, 1-Cyano-2-(1,3-dioxoisoindolin-2-yl)-N-phenyl-5,6,7,8-tetrahydroindolizine-3-carboxamide]	22.1 ± 1.6	34.1 ± 1.9	31.3 ± 2.3	–
N#Cc1c(N2C(=O)c3ccc(F)cc3C2=O)c(C(=O)Nc2ccccc2)n2c1CCCC2 [Compound 6k, 1-Cyano-2-(5-fluoro-1,3-dioxoisoindolin-2-yl)-N-phenyl-5,6,7,8-tetrahydroindolizine-3-carboxamide]	83.7 ± 4	78.2 ± 3.8	80.6 ± 4.1	–
Cc1ccc(NC(=O)c2c(N3C(=O)c4ccccc4C3=O)c(C#N)c3n2CCCC3)cc1 [Compound 6l, 1-Cyano-2-(1,3-dioxoisoindolin-2-yl)-N-(p-tolyl)-5,6,7,8-tetrahydroindolizine-3-carboxamide]	57.5 ± 3.1	61.6 ± 3.5	63.2 ± 3.5	–
Cc1ccc(NC(=O)c2c(N3C(=O)c4ccc(F)cc4C3=O)c(C#N)c3n2CCCC3)cc1 [Compound 6m, 1-Cyano-2-(5-fluoro-1,3-dioxoisoindolin-2-yl)-N-(p-tolyl)-5,6,7,8-tetrahydroindolizine-3-carboxamide]	28.4 ± 1.9	12 ± 0.8	19.9 ± 1.4	IC50 (EGFR TK): 0.13 ± 0.011 µM; P-gp RT-PCR fold change (P-gp in HepG-2/ADR cells): 0.6754 fold; IC50 (CDK-2): 0.402 ± 0.086 µM
N#Cc1c(N2C(=O)c3ccccc3C2=O)c(C(=O)Nc2ccc(F)cc2)n2c1CCCC2 [Compound 6n, 1-Cyano-2-(1,3-dioxoisoindolin-2-yl)-N-(4-fluorophenyl)-5,6,7,8-tetrahydroindolizine-3-carboxamide]	71.3 ± 3.5	65.4 ± 3.7	75.8 ± 3.9	–
N#Cc1c(N2C(=O)c3ccc(F)cc3C2=O)c(C(=O)Nc2ccc(F)cc2)n2c1CCCC2 [Compound 6o, 1-Cyano-2-(5-fluoro-1,3-dioxoisoindolin-2-yl)-N-(4-fluorophenyl)-5,6,7,8-tetrahydroindolizine-3-carboxamide]	5.84 ± 0.2	6.02 ± 0.3	8.89 ± 0.5	IC50 (EGFR TK): 0.062 ± 0.003 µM; Late cellular apoptosis (HCT-116 cells [6]; DMSO control 0.16%, upper right quadrant): 26.51%; Early cellular apoptosis (HCT-116 cells [6]; DMSO control 0.52%, lower right quadrant): 15.16%; Total cellular apoptosis (HCT-116 cells [6]; DMSO control 2.61%): 49.16%; P-gp RT-PCR fold change (P-gp in HepG-2/ADR cells): 0.2732 fold; IC50 [5]: 6.02 to 13.9 µM; IC50 (CDK-2): 0.118 ± 0.016 µM; Cells in G1 phase (HCT-116 cells [7]): 48.75%
COc1ccc(NC(=O)c2c(N3C(=O)c4ccccc4C3=O)c(C#N)c3n2CCCC3)cc1 [Compound 6p, 1-Cyano-2-(1,3-dioxoisoindolin-2-yl)-N-(4-methoxyphenyl)-5,6,7,8-tetrahydroindolizine-3-carboxamide]	79.6 ± 3.7	73.3 ± 3.9	86.9 ± 4.3	–
COc1ccc(NC(=O)c2c(N3C(=O)c4ccc(F)cc4C3=O)c(C#N)c3n2CCCC3)cc1 [Compound 6q, 1-Cyano-2-(5-fluoro-1,3-dioxoisoindolin-2-yl)-N-(4-methoxyphenyl)-5,6,7,8-tetrahydroindolizine-3-carboxamide]	32.2 ± 2.2	41.2 ± 2.3	37.4 ± 2.6	–
COc1cccc2c1C(=O)c1c(O)c3c(c(O)c1C2=O)C[C@@](O)(C(=O)CO)C[C@@H]3O[C@H]1C[C@H](N)[C@H](O)[C@H](C)O1 [DOX, Doxorubicin, reference compound]	–	4.5 ± 0.2	–	–
O=C(c1ccccc1)c1ccc2n1CCC2C(=O)O (centres unmarked) [Ketorolac]	–	–	–	IC50 ([1]; read-out: IC50 against lung cancer cell lines A549): ~13 µM
COc1ccc(-c2csc3c2-n2cccc2C3=O)cc1O [MR22388]	–	–	–	IC50 (leukemia L1210 cells): 0.015 µM
CC/C(=C(\c1ccccc1)c1ccc(OCCN(C)C)cc1)c1ccccc1 [Tamoxifen, reference compound]	–	–	–	P-gp RT-PCR fold change (P-gp in HepG-2/ADR cells): 0.2176 fold
CC1(C)Cc2c(-c3ccccc3)c(-c3ccc(Cl)cc3)c(CC(=O)O)n2C1 [licofelone]	–	–	–	IC50 [8]: 5.5 µM
